Entries after “also recorded” stand apart in the source; their conditions may differ.
Tests used:
[1] = target: N-type calcium channels (Homo sapiens, UniProt Q00975); conditions: cited from earlier work
[2] = tested on: male Wistar rats with pilocarpine-induced status epilepticus; assay: Lateral ventricle size after SE, Nissl (cresyl violet) stained brain sections; format: in vivo, rat; conditions: treated at 3 hours post-SE (0.3 and 3 nmol/gm); 14 days post-SE
Method: Following pilocarpine and Tat-NR2B9c administration, and fixing of brain sections, as described above, every 6th section was used for Niss1 staining with cresyl violet. Sections were mounted and allowed to air dry on gelatin coated slides. The sections were rehydrated in an alcohol series at 100%, 95%, 70%, and 50% each for 5 minutes. The sections are then placed in water for 1 minute, followed by the Cresyl Violet Stain for 20 to 30 minutes. Sections are rinsed (30 seconds×2) in water, and dehydrated in an alcohol series at 50% for 5 minutes (or less), 70% for 5 minutes (or less), 95% for 5 minutes (or less), 100% for 5 minutes (or less), and 100% for 5 minutes (or less). Differentiation occurs maximally at the 50% and 70% alcohol gradients. Sections were cleared in xylene for 5 minutes and coverslipped with Permount, and viewed, e.g., under 40× magnification.

[3] = tested on: rats with status epilepticus induced by the RLDP procedure; assay: Elevated plus maze (exploratory behaviour) at 8 weeks post-SE; format: in vivo, rat; conditions: administered 3 hours post-SE, 5 minutes on maze
Method: (§1) We investigated possible behavioral effects of 60 min SE induced with the RLDP procedure. Visual-spatial memory was investigated with the Morris water maze (MWM) at 8 weeks post-SE to detect chronic cognitive impairment. The MWM is of particular usefulness with studies involving therapeutic agents, since the severity of neurodegeneration in the anterior CA1 region is strongly correlated with performance (escape latency) (Clasussen et al, 2005). […] All groups contained at least 6 animals.
The elevated plus maze is used to investigate exploratory behaviour. At 8 weeks post-SE, animals were placed on the elevated plus maze for 5 minutes and videotaped. […] Furthermore, SE animals had reduced frequency of lookouts into the open arm and rearing episodes when compared to controls (FIGS. 12 E & F).

[4] = tested on: rats with status epilepticus induced by the RLDP procedure; assay: Morris water maze (visual-spatial memory) at 8 weeks post-SE; format: in vivo, rat; conditions: administered 3 hours post-SE
Method: as §1
In our study animals were trained on the MWM task for 14 consecutive days, with 6 trials completed daily. […] No SE animals, however, learned the task within 6 consecutive days, with no further improvement in escape latency thereafter.

[5] = tested on: animal models of stroke; conditions: applied before or 1 hour after a stroke; cited from earlier work
[6] = stroke indication; cited from earlier work
[7] = tested on: male Wistar rats with pilocarpine-induced status epilepticus; assay: Neuron loss (NeuN-positive cell counts) after status epilepticus in the lithium-pilocarpine rat model
Method: Male Wistar rats between 350 to 400 grams were pretreated with lithium chloride (ip; 3 mEq/kg) 17 to 24 hours before systemic injection of the chemoconvulsant pilocarpine. Pilocarpine (ip; 10 mg/kg) was administered every 30 minutes until onset of status epilepticus (SE), which was defined as a loss of consciousness and continuous overt seizure activity. […] Rats generally developed SE shortly thereafter. […] SE was terminated at 1, 3 and 5 hours following onset of SE with diazepam (ip; 4 mg/kg).
Animals were anaesthetized with ketamine and Romptum, and transcardially perfused with paraformaldehyde (PFA; 4% in 0.1M phosphate buffer, pH 7.4) 2 weeks after SE induction. Brains were removed, post-fixed overnight in PFA, and then equilibrated in 30% sucrose in PBS. Brains were then frozen at −35° C. in methylbutane and stored until further use at −70° C. in scintillation vials containing frozen 30% sucrose in PBS to prevent freezer drying. The brains were coronally sectioned at 40 μm using a freezing microtome and stored at −20° C. in 24-well plates containing antifreeze solution (15% glucose, 30% ethylene glycol, 50 mMol phosphate buffer; pH 7.4).
For each animal, neuronal cells were quantified by immunohistochemical staining with NeuN, a neuronal cell specific antibody.

Sequence of N-type calcium channels (Q00975 whole entry): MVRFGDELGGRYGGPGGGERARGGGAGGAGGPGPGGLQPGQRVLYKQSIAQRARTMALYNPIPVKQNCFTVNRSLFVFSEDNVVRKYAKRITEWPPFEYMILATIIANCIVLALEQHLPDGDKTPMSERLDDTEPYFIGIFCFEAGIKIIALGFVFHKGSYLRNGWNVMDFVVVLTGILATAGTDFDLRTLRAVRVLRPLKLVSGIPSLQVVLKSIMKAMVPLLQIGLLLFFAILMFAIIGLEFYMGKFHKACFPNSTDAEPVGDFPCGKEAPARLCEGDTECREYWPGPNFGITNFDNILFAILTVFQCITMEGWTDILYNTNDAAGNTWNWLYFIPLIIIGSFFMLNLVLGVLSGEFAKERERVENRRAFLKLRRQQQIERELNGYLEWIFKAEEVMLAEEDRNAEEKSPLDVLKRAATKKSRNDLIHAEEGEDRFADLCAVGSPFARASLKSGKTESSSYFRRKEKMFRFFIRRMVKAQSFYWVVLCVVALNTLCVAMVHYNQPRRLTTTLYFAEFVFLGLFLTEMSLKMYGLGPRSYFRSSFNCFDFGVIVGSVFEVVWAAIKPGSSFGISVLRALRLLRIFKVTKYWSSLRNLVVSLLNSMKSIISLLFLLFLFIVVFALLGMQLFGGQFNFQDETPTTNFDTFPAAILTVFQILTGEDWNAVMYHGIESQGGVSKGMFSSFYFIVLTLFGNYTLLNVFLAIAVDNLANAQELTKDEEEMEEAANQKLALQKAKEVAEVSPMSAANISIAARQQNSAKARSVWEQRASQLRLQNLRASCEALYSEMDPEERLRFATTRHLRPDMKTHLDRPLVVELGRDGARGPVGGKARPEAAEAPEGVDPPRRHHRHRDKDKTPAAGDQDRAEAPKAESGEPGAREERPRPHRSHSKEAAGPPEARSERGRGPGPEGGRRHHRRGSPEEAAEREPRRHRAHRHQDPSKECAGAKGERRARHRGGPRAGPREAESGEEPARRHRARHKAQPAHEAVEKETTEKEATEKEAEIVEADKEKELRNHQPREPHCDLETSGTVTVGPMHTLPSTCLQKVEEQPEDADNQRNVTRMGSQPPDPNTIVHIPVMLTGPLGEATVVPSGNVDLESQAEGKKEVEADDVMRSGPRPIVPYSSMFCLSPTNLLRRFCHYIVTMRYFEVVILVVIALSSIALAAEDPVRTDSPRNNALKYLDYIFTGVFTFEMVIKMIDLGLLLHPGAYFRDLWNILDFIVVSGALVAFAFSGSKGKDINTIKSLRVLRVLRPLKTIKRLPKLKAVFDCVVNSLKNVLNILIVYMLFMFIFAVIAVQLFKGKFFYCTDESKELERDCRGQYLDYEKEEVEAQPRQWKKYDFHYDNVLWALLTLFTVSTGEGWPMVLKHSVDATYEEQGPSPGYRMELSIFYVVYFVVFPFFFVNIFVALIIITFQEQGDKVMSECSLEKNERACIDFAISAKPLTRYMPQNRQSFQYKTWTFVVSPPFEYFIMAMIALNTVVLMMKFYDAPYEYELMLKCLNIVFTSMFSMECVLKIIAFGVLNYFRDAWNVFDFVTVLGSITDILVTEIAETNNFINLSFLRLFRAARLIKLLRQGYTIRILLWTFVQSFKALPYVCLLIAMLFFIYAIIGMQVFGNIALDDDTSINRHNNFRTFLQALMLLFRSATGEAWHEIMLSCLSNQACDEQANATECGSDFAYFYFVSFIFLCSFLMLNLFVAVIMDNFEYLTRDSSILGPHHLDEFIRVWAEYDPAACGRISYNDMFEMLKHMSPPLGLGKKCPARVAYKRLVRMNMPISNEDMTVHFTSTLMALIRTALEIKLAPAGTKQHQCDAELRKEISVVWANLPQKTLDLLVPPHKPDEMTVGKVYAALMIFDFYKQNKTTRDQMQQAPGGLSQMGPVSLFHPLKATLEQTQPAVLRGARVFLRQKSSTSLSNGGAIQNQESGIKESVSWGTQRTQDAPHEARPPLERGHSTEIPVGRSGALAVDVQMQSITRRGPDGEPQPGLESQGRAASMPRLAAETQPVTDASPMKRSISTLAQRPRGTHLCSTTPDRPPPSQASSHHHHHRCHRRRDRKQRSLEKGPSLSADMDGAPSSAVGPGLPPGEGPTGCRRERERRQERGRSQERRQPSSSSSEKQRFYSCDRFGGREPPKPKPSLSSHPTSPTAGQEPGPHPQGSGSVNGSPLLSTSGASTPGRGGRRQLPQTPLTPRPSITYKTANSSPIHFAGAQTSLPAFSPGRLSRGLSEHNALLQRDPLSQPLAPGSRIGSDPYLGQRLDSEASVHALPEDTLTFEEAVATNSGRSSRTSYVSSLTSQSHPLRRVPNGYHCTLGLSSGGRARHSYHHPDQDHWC

Row | Sequence | Binding to and inhibition of N-type calcium channels [1] | Size of lateral ventricles following SE [2] | Effects of SE on exploratory behaviour / cognitive impairment, elevated plus maze [3] | Escape latency performance, Morris water maze [4] | Neuroprotection in animal models of stroke [5] | Adverse events / side effects in phase I clinical trials [6] | Neuroprotection / neuron loss (NeuN-positive cells), peptide administered during status epilepticus ([7]; administered 10 minutes following initiation of SE, 0.3, 3 and 9 nmol/gm, 7 days after SE) | NeuN-immunostaining of coronal sections of the dorsal hippocampus (histochemical visualization) ([7]; administered 3 hours following the insult, 2.5x and 40x magnification) | Neuroprotection / neuron loss (NeuN-positive cells), anterior (dorsal) CA1 region of the hippocampus ([7]; administered via femoral vein 3 hours after termination of SE, 0.3 or 3 nmol/gm, 14 days recovery) | Number of surviving neuronal cells near the subicular border of the CA1 region ([7]; compared to saline-treated animals) | Neuroprotection in the CA4 region ([7]; rat, in vivo)
1 | YGRKKRRQRRR [standard tat peptide] | binds to and inhibits N-type calcium channels | – | – | – | – | – | – | – | – | – | –
2 | YGRKKRRQRRRKLSSIESDV (synthetic chimeric PDZ-binding ligand (PL) motif active peptide linked to HIV TAT internalization peptide, Tat-NR2B9c-(SDV)) | – | reduced them to the size found in rats who had not been given pilocarpine; also recorded: dramatic reduction of lateral ventricle size; also recorded: noticeably smaller lateral ventricles | decreased these effects of SE on exploratory behavior; also recorded: reduces the cognitive impairment caused by status epilepticus | improves escape latency performance, especially during the initial 5 days of acquisition learning | highly neuroprotective | without serious adverse events | did not decrease neuron loss; also recorded: comparable to neuron loss in untreated rats; also recorded: not during | increased NeuN-immunostaining; also recorded: This effect was reversed | rescued neuron loss in a dose-dependent manner; also recorded: especially protective; also recorded: conferred neuroprotection; also recorded: neuroprotective in the anterior CA1 region of the hippocampus; also recorded: neuroprotective when administered after; also recorded: dose-dependent neuroprotection | increased the number of surviving neuronal cells | confers neuroprotection
